Where two headings read alike, the source gives them in different places. Bridge positions count the residues as written; N and C are the ends. Square brackets hold non-standard residues; d marks the D form. Peptide text beside a SMILES is read from it. S5 = C=CCCC[C@](C)(N)C(=O)O

For experiment [1], the system named is HIV-1 IIIB. In words: Release and infectivity of HIV-1 virus released from infected MT-2 cells after treatment. The class given is cell-based. To be noted: lower dose 6.25 μg/ml, normalized for p24, TCID50. How it is done: On the fourth day post-infection, the supernatants were collected and filtered with a 0.45 μm PVDF membrane. One aliquot of the supernatants from each sample was mixed 1:1 with a solution of 5% Triton X-100 for p24 quantification, and stored at 4° C., another aliquot was immediately frozen at −80° C. and used to compare the infectivity of the viral particles released by NYAD-201 and NYAD-202 treated cells to the viral particles released by untreated cells. The protein p24 was first quantified by sandwich-ELISA, then the viral samples were normalized for the p24 content and titered to calculate the TCID50. MT-2 cells were infected with a two fold dilutions of virus from NYAD-201 and NYAD-202 treated and untreated cells. […] On the fourth day post infection supernatants were collected for p24 quantification by sandwich-ELISA and the TCID50 was calculated by the Spearman-Karber statistical method. […]
For these reasons, not only the quantity but also the quality of the viral particles released in the supernatant was evaluated. First, the p24/viral particles released in the supernatant following NYAD-201 and NYAD-202 treatment were quantified, then starting with the same amount of p24 per sample, the viruses released in the supernatant were titered. The TCID50 was calculated and expressed as percentage infectivity with respect to the untreated positive control. […]

Another experiment has as its system HIV-1 MN. To be noted: read-out: IC50 (μM ± SD), HIV-1 MN; laboratory strain, subtype B, MT-2, coreceptor X4. How it is done:
(§1) The inhibitory activity of NYAD-201, and related stapled peptides on infection by laboratory-adapted HIV-1 strains was determined as previously described (Jiang et al. J Exp. Med 174:1557-1563, 1991) with minor modifications. Azidothymidine (AZT) was used as a positive control in the infectivity assays. In brief, 1×10^4 MT-2 cells were infected with HIV-1 at 100 TCID50 (50% tissue culture infective dose) (0.01 MOI [multiplicity of infection]) in 200 μl RPMI 1640 medium containing 10% FBS in the presence or absence of peptides at graded concentrations overnight. The culture supernatants were then removed and fresh media containing freshly prepared test peptide were added. On the fourth day post-infection, 100 μl of culture supernatants were collected from each well, mixed with equal volume of 5% Triton X-100 and tested for p24 antigen by ELISA.
(§2) In addition, NYAD-201, NYAD-202 and NYAD-203 were also tested using several laboratory-adapted and primary isolates in MT-2 cells and PBMC (peripheral blood mononuclear cells), respectively.

A further experiment deals with HIV-1RF/L-323-12-3. To be noted: read-out: IC50 (μM ± SD), HIV-1RF/L-323-12-3; PR-resistant isolate, subtype B, MT-2, coreceptor X4. How it is done: as §1, §2
For experiment [2], the system named is HIV-1 IIIB. How it is done: as §1, §2
The test system of the next experiment is HIV-1 RF. To be noted: read-out: IC50 (μM ± SD), HIV-1 RF; laboratory strain, subtype B, MT-2, coreceptor X4. How it is done:
as §1, §2

A further experiment has as its system HIV-1 AZT-R. To be noted: read-out: IC50 (μM ± SD), HIV-1 AZT-R; RT-resistant isolate, subtype B, MT-2, coreceptor X4. How it is done: as §1, §2
The next experiment concerns HIV-1 SF2. To be noted: read-out: IC50 (μM ± SD), HIV-1 SF2; laboratory strain, subtype B, MT-2, coreceptor R5X4. How it is done: as §1, §2

With `CSCC[C@@H]1NC(=O)[C@H](Cc2c[nH]c3ccccc23)NC(=O)[C@@](C)(NC(=O)[C@H](CCCCN)NC(=O)[C@@H](NC(=O)[C@H](CCC(=O)O)NC(=O)[C@H](CCC(N)=O)NC(=O)[C@H](C)N)C(C)C)CCCC=CCCC[C@@](C)(C(=O)N[C@H](C(=O)N[C@@H](CC(C)C)C(=O)N[C@@H](CC(C)C)C(=O)N[C@H](C(=O)N[C@@H](C)C(N)=O)C(C)C)[C@@H](C)O)NC(=O)[C@H]([C@@H](C)O)NC1=O` [NYAD-201, AQEVKXWMTXTLLVA] (H-AQEVK[S5]WMT[S5]TLLVA-NH2; staple 6-10), the “Percentage infectivity of virus produced by treated cells with respect to untreated control” value in the experiment on HIV-1 IIIB [1] was 50%. Besides, the IC50 in the experiment on HIV-1 MN turned out to be 3.03 ± 0.61 µM; with HIV-1RF/L-323-12-3, 5.6 ± 0.5 µM; in the experiment on HIV-1 IIIB [2] (read-out: IC50 (μM ± SD), HIV-1 IIIB, laboratory strain, subtype B, MT-2, coreceptor X4), 4.29 ± 0.62 µM; in the experiment with HIV-1 IIIB [2] (read-out: IC50 (μM) ± SD, antiviral activity against HIV-1 IIIB, MT-2 cells, p24 production, fourth day post-infection) it was 4.29 ± 0.62 µM; in the experiment with HIV-1 RF, 2.84 ± 0.63 µM; in the experiment on HIV-1 AZT-R, 8 ± 1.27 µM. In addition, the IC50 in the experiment on HIV-1 SF2 was 5.06 ± 1.37 µM.

The record behind these values is patent US8933019B2, “Antiviral cell-penetrating peptides” (priority 2008, dated 2015).
